According to patent US20090319044A1, “Methods and Compositions for Improving the Incorporation of Orthopaedic and Orthodontic Implants” (priority 2006, published 2009):

What was measured:
MC3T3 cells = assay: Cytokine gene expression after A23187 treatment (Quantitative-RT PCR); assay type: cell-based; settings: 1 to 6 hours after stimulation, relative to controls
Method: Wear particles and calcium signaling induce cytokine expression in macrophages and osteoblasts. Cytokine gene expression was measured following A23187 treatment in MC3T3 cells by Quantitative-RT PCR. RNA was isolated from the cells using an RNeasy Mini Kit (Qiagen, Valencia, Calif.), and Quantitative-RT PCR was performed using a SYBR Green master mix (Roche, Ind.).

[1] = test system: RAW 264.7 mouse macrophage-like cells (osteoclast precursors); assay: Cell death assay (annexin V-FITC / propidium iodide flow cytometry); assay type: cell-based; settings: 50 μM zoledronate, 24 hours
Method: MC3T3 cells, which are well-established mouse calvarial cells of osteoblastic lineage, and RAW 264.7 mouse macrophage-like cells, which are well-known to form osteoclasts, were purchased from the American Type Culture Collection and Tissue (Manassas, Va.). MC3T3 and RAW 264.7 cells were grown in Dulbecco's Modified Eagle Medium supplemented with 10% fetal bovine serum, 100 μ/mL penicillin, […] streptomycin, and 0.1% fungizone (amphotericin B). The cells were kept at 37° C. in a humidified atmosphere of 5% CO2 and 95% air.
Cell number was measured, and the cells were centrifuged and resuspended in binding buffer (A.G. Scientific, San Diego, Calif.) to a final cell density of 5×10^5 cells/mL. […] of annexin V-FITC (A.G. Scientific, San Diego, Calif.) was added to […] of cell suspension and incubated for 10 minutes. The cells were centrifuged, washed with PBS and resuspended again in […] of binding buffer. […] of 20 mg/mL propidium iodide (A.G. Scientific, San Diego, Calif.) was added to the cell suspension, and flow cytometry was performed using a FACS Calibur (Becton Dickson, Franklin Lakes, N.J.). Monoparametric cytograms of annexin V-FITC fluorescence (FL1) versus number of events were created using the CellQuest program gating for living cells and excluding dead cells on the basis of their propidium iodide uptake.

[2] = test system: rodent osteolysis model (UHMWPE wear debris, femur); assay: First in vivo study: Faxitron and micro-CT imaging of osteolysis around implants; design: species or system rat; settings: 24 weeks, vs HA-coated control
Source text: (§1) More particularly, sterile ultrahigh molecular weight polyethylene (UHMWPE) wear debris particles (0.5 cc, 0.1-3 micron particle size) were introduced into the intramedullary cavity of bilateral femurs of 8 rats, which served as the control group in this example. The particles were introduced after reaming the femurs with an 18 gauge needle at the knee joint. Sterile wear debris particles were used in this example to stimulate a wear debris reaction and promote osteolysis. Hydroxyapatite-coated plastic pins and hydroxyapatite-coated titanium pins (1.5 mm×20 mm, Stryker, Kalamazoo, Mich.) were then inserted into the intramedullary canal of the right femur and left femur, respectively.
(§2) The test group, which consisted of 8 rates, also had 0.5 cc of sterile UHMWPE wear debris particles introduced into the femoral intramedullary canal after reaming with an 18 gauge needle at the knee joint.
The rats of the test and control groups were sacrificed at 24 weeks following insertion of the pins and the femurs were retrieved. Faxitron radiographs (Faxitron, Wheeling, Ill.) of the femurs taken from the test and control rats were obtained. […] The femurs with plastic pin implants (the right femurs) were imaged by micro-CT (Stratec XCT-3000, Stratec Medizintechnik GmbH, Pforzheim, Germany).

[3] = test system: rodent osteolysis model (UHMWPE wear debris, femur); assay: First in vivo study: pull-out strength testing of titanium pins; design: species or system rat; settings: 24 weeks
Source text: as §1, §2
Incorporation of the implants by the host bone was evaluated by “pull-out strength testing” of the titanium pins (left femurs) (MTS 858 Bionix, MTS Systems Corporation, Minneapolis, Minn.). Such “pull-out strength testing” measures the amount of force (i.e., pull force) that must be applied to displace (or remove) the implant from the bone.

[4] = test system: polyethylene particle-induced osteolysis rodent femur model; assay: Second in vivo study: dual energy X-ray absorptiometry (DXA); design: species or system Sprague-Dawley rats; bone area (DXA): unit not given here; settings: HA-coated nail soaked in 50 μM zoledronate, 6 weeks and 6 months pooled
Source text: (§3) Experimental Design and Surgical Procedure. In this example, a polyethylene particle-induced osteolysis rodent femur model was used to examine the advantages of using a HA-zoledronate composite on the implant surface for osseous integration and implant stability in the presence of UHMWPE particles. Two critical parameters were examined, namely, peri-implant bone quality (osteolysis) and osseointegration (implant stability).
All procedures involving animals were approved by the Institutional Animal Care and Use Committee in accordance with the Association for the Assessment and Accreditation of Laboratory Animal Care guidelines (Columbia University Animal Proctocol AC-AAM5306). In this example, a rodent femur intramedullary nailing model was used with UHMWPE wear debris particles instilled into the intramedullary canal after reaming the femur to stimulate a wear debris reaction. Thirty-two six-month-old adult male Sprague-Dawley rats (weight, 400-500 gm) were purchased (Charles Laboratory, Cambridge, Mass.).
(§4) The 32 rats were divided into two study groups, each composed of 16 rats. Sixteen randomly selected rats served as a control group, which received HA-coated nails. […] Eight rats in each group were sacrificed at 6 weeks following the intramedullary nailing of HA-coated implants and another 8 rats from each group were sacrificed 6 months following the surgery.
After induction of general anesthesia using ketamine (60 mg/kg) and xylazine (5 mg/kg), hair over the knee was removed with a clipper. Right and left knee regions were prepared with 70% alcohol and 1% Betadine solution. A one centimeter longitudinal skin incision was made over the anterior aspect of the distal femur. […]
(§5) In the control group, a radiolucent UHMWPE intramedullary nail, which was coated with HA, was implanted into the right distal femur in a retrograde manner, while a HA-coated titanium intramedullary nail was implanted into the left distal femur. […] Activity level, food intake, the condition of the surgical wound, and clinical signs of infection were monitored daily. […]

[5] = test system: polyethylene particle-induced osteolysis rodent femur model; assay: Second in vivo study: micro-CT periprosthetic bone area; design: species or system Sprague-Dawley rats; settings: HA-coated UHMWPE nail soaked in 50 μM zoledronate; right femora; times pooled; p<0.0001 vs control
Source text: as §3
as §4, with “surgery. […]” for “surgery.”
as §5
Micro-computed Tomography (micro-CT). The right femura with UHMWPE pins were imaged using a quantitative CT (Stratec XCT-3000), running the XCT Series software, version 5.21 (Stratec Medizintechnik GmbH, Pforzheim, Germany). […]

[6] = test system: polyethylene particle-induced osteolysis rodent femur model; assay: Second in vivo study: biomechanical pull-out testing; design: species or system Sprague-Dawley rats
Source text: as §3, §4
After induction of general anesthesia using ketamine (60 mg/kg) and xylazine (5 mg/kg), hair over the knee was removed with a clipper. Right and left knee regions were prepared with 70% alcohol and 1% Betadine solution. A one centimeter longitudinal skin incision was made over the anterior aspect of the distal femur. A medial parapatellar approach was made to expose the intercondylar notch with the knee in flexion. An entry hole was made with a 18-gauge needle. The distal rat femora were reamed with an 18-gauge needle, and then Ceridust® UHMWPE particles (0.1 mL of 50 vol. %; 0.1 to 3 micron in size; Clariant GmbH, Germany) were introduced into the intradmedullary canal prior to implantation.
In the control group, a radiolucent UHMWPE intramedullary nail, which was coated with HA, was implanted into the right distal femur in a retrograde manner, while a HA-coated titanium intramedullary nail was implanted into the left distal femur. The joint capsule was repaired using a 2-0 Vicryl® suture (Johnson & Johnson, New Brunswick, N.J.). The skin was repaired with metal staples. Rats were allowed weight bearing as tolerated in their cages, while subcutaneous injections of buprenorphine (0.05 mg/kg) were given once a day for two post-operative days. Activity level, food intake, the condition of the surgical wound, and clinical signs of infection were monitored daily.
The purpose of using the UHMWPE nail was to minimize imaging artifacts inherent in metal implants for a more accurate analysis of dual energy x-ray absorptiometry (DXA) and microcomputed tomography (micro-CT) analyses, which are describe below. The metallic nail was used for biomechanical testing. The intramedullary nails, 1.4 mm in diameter and 20 mm in length, were custom-made for this study (Stryker, Mahwah, N.J.).
Biomechanical Testing. The left femora of both the 6-week and 6-month control and treatment groups were subjected to biomechanical testing following the imaging studies described herein. […]

[7] = HA-coated titanium nail soaked in 50 μM zoledronate, left femora, times pooled, p<0.0001 vs control

Row | Compound | COX-2 expression (MC3T3 cells) | TNF-alpha expression (MC3T3 cells) | apoptosis in RAW cells [1] [%] | osteolysis around plastic implants (micro-CT) ([2]; HA-coated plastic pins presoaked in zoledronate 15 minutes, right femur) | osteolysis around titanium implant (Faxitron radiographs) ([2]; HA-coated titanium pins presoaked in zoledronate 15 minutes, left femur) | peak force to extract the titanium pin implants ([3]; zoledronate-treated HA-coated titanium pins vs control, p<0.0001) | pullout energy ([3]; zoledronate-treated HA-coated titanium pins, p=0.0085 vs control) [N-m] | bone mineral content (DXA) ([4]; p<0.0001 vs control) [g] | bone mineral density (DXA) ([4]; p<0.0001 vs control) [g/cm^2] | bone area (DXA) ([4]; p=0.1222 vs control) | amount of bone mass in the periprosthetic area (micro-CT) [5] [mm^2] | increase in total energy to pull-out over control ([6]; 6-month group) [%] | increase in total energy to pull-out over control ([6]; 6-weeks group) [%] | average peak pullout force [6, 7] [N] | energy required to completely pull the pin out of the bone [6, 7] [N-mm]
1 | CNc1ccc2oc(C[C@H]3O[C@@]4(CC[C@H]3C)O[C@H]([C@H](C)C(=O)c3ccc[nH]3)[C@H](C)C[C@H]4C)nc2c1C(=O)O [A23187] | increase | increase |  |  |  |  |  |  |  |  |  |  |  |  | 
2 | zoledronate |  |  | 100 | not around such implants in the test rats | not around the titanium implants in the test rats | statistically higher | 5.71±3.42 | 0.417 ± 0.064 | 0.328±0.036 | 1.265±0.081 | 2.388±0.960 | 170.7 | 542.8 | 241.0±95.1 | 521.6±293.8
